Legend:
[1] = tested on: gamma-IFN-producing CD8 cells in PBMCs from patient 201#5; assay: ELISpot-γIFN assay, ex vivo recognition of epitope peptides by PBMCs; conditions: PBMCs from patient 201#5 treated with NRTIs and carrying RT mutation 41 (M>L), no prior stimulation
[2] = molecular target: Mutated peptide 33-41 of HIV-1 reverse transcriptase (mutation 41 M>L) (HIV-1)
[3] = molecular target: Wild-type peptide 33-41 of HIV-1 reverse transcriptase (HIV-1)

ALVEICTEL [mutated peptide 33-41] was tested, and the “frequency of recognition (cells secreting γIFN), SFC/10^6 PBMCs” value [1] was 95 SFC/10^6 PBMCs.
For ALVEICTEM [wild-type peptide 33-41], the “frequency of recognition (cells secreting γIFN), SFC/10^6 PBMCs” value [1] was 3 SFC/10^6 PBMCs.
“PBMCs from patient 201#5 (cells without a defined receptor)” showed an SFC/10^6 PBMCs (ELISpot gamma-IFN) (SFC/10^6 PBMCs) [2] of 95 and an SFC/10^6 PBMCs (ELISpot gamma-IFN) (SFC/10^6 PBMCs) [3] of 3.

From patent publication US20050074463A1, “Therapeutic vaccination method, mutated peptides of hiv reverse transciptase and their use for vaccination and diagnostic purposes” (Universite Pierre et Marie Curie-paris VI, priority 2001, published 2005)
